In patent publication US9995734B2, “Human T cell line assay for evaluating the immunologic identity of glatiramer acetate preparations” (Mylan Inc., priority 2013, dated 2018):
“And” between values parts separate entries of the source, which are not always exact repeats. Equal entries are not always repeated.

Tests used:
Type in all cases: cell-based, human
[1] = system: Donor 4 COP T-Cell Lines; experiment: ATP proliferation assay (CellTiter Glo), Donor 4 COP T-cell lines, incl. reactivity to non-canonical GA peptides; conditions: for Non-Canonical Peptide Non-Reactivity: proliferation <2 times no antigen control; for Proliferation (luminescent ATP assay), Mean: T-cell line 205-1F4, Day 71, autologous B-LCL
[2] = system: Donor 3 COP T-Cell Lines; experiment: ATP proliferation assay (CellTiter Glo), Donor 3 COP T-cell lines, incl. reactivity to non-canonical GA peptides; conditions: for Non-Canonical Peptide Non-Reactivity: proliferation <2 times no antigen control
[3] = system: Donor 3 GMA T-Cell Lines; experiment: ATP proliferation assay (CellTiter Glo), Donor 3 GMA T-cell lines, incl. reactivity to non-canonical GA peptides; conditions: for Non-Canonical Peptide Non-Reactivity: proliferation <2 times no antigen control

Substance: poly (Glu-Ala-Tyr; 1:1:1) [GAT 111]
- Non-Canonical Peptide Non-Reactivity ([1]; 205-1F4): GAT 111
- Non-Canonical Peptide Non-Reactivity ([1]; 205-1H3): GAT 111
- reactivity to non-canonical GA peptides ([1]; 205-1H7, after seven stimulations, 0, 1, 10, 30 μg/mL): not
- Non-Canonical Peptide Non-Reactivity ([1]; 205-1H7): GAT 111
- Non-Canonical Peptide Non-Reactivity ([1]; 205-1H11): GAT 111
- Nonreactive T-Cell Line ([1]; Donor 4 COP lines, stimulation with the non-canonical GA peptide): 205-1F4 (Donor 4) and 205-1H3 (Donor 4) and 205-1H7 (Donor 4) and 205-1H11 (Donor 4)
- Proliferation (luminescent ATP assay), Mean ([1]; 1 μg/mL antigen): 2002
- Proliferation (luminescent ATP assay), Mean ([1]; 3 μg/mL antigen): 2163
- Proliferation (luminescent ATP assay), Mean ([1]; 10 μg/mL antigen): 2275
- Non-Canonical Peptide Non-Reactivity ([2]; 165-C4C): GAT 111
- Non-Canonical Peptide Non-Reactivity ([2]; 165-C7C): GAT 111
- proliferation response to non-canonical peptides ([2]; 165-E3C, separate experiment): did not react
- Non-Canonical Peptide Non-Reactivity ([2]; 165-F3C): GAT 111
- Non-Canonical Peptide Non-Reactivity ([2]; 165-F6C): GAT 111
- Non-Canonical Peptide Non-Reactivity ([2]; 165-U3C (so in the source)): GAT 111
- Nonreactive T-Cell Line ([2]; Donor 3 COP lines, stimulation with the non-canonical GA peptide): 165-C4C (Donor 3) and 165-C7C (Donor 3) and 165-E3C (Donor 3) and 165-F3C (Donor 3) and 165-F6C (Donor 3)
- Proliferation (luminescent ATP assay), Mean ([2]; T-cell line 165-C4C, 1 μg/mL antigen, Day 66 of culture, 0 μg/mL 1881): 2330
- Proliferation (luminescent ATP assay), Mean ([2]; T-cell line 165-C4C, 3 μg/mL antigen, Day 66 of culture, 0 μg/mL 1881): 2392
- Proliferation (luminescent ATP assay), Mean ([2]; T-cell line 165-C4C, 10 μg/mL antigen, Day 66 of culture, 0 μg/mL 1881): 2233
- Proliferation (luminescent ATP assay), Mean ([2]; T-cell line 165-C7C, 1.25 μg/mL antigen, autologous B-LCL): 273 RLU
- Proliferation (luminescent ATP assay), Mean ([2]; T-cell line 165-C7C, 2.5 μg/mL antigen, autologous B-LCL): 231 RLU
- Proliferation (luminescent ATP assay), Mean ([2]; T-cell line 165-C7C, 5 μg/mL antigen, autologous B-LCL): 224 RLU
- Proliferation (luminescent ATP assay), Mean ([2]; T-cell line 165-C7C, 10 μg/mL antigen, autologous B-LCL): 264 RLU
- Proliferation (luminescent ATP assay), Mean ([2]; T-cell line 165-F3C, 1 μg/mL antigen, Day 77 of culture, 0 μg/mL 1563): 2387
- Proliferation (luminescent ATP assay), Mean ([2]; T-cell line 165-F3C, 3 μg/mL antigen, Day 77 of culture, 0 μg/mL 1563): 2269
- Proliferation (luminescent ATP assay), Mean ([2]; T-cell line 165-F3C, 10 μg/mL antigen, Day 77 of culture, 0 μg/mL 1563): 1772
- Proliferation (luminescent ATP assay), Mean ([2]; T-cell line 165-F6C, 1.25 μg/mL antigen, Day 76 of culture, No Antigen value 517): 576
- Proliferation (luminescent ATP assay), Mean ([2]; T-cell line 165-F6C, 2.5 μg/mL antigen, Day 76 of culture, No Antigen value 517): 620
- Proliferation (luminescent ATP assay), Mean ([2]; T-cell line 165-F6C, 5 μg/mL antigen, Day 76 of culture, No Antigen value 517): 479
- Proliferation (luminescent ATP assay), Mean ([2]; T-cell line 165-F6C, 10 μg/mL antigen, Day 76 of culture, No Antigen value 517): 411
- Non-Canonical Peptide Non-Reactivity ([3]; 165-B5G): GAT 111
- Non-Canonical Peptide Non-Reactivity ([3]; 165-C5G): GAT 111
- Non-Canonical Peptide Non-Reactivity ([3]; 165-E7G): GAT 111
- Non-Canonical Peptide Non-Reactivity ([3]; 165-E9G): GAT 111
- Non-Canonical Peptide Non-Reactivity ([3]; 165-F5G): GAT 111
- Non-Canonical Peptide Non-Reactivity ([3]; 165-F10G): GAT 111
- Non-Canonical Peptide Non-Reactivity ([3]; 165-H11G): GAT 111
- Nonreactive T-Cell Line ([3]; Donor 3 GMA lines, stimulation with the non-canonical GA peptide): 165-B5G (Donor 3) and 165-C5G (Donor 3) and 165-C8G (Donor 3) and 165-E7G (Donor 3) and 165-E9G (Donor 3) and 165-F5G (Donor 3) and 165-F10G (Donor 3) and 165-H11G (Donor 3)
- Proliferation (luminescent ATP assay), Mean ([3]; T-cell line 165-05G, 1 μg/mL antigen, Day 50 of culturing, No Antigen Value 2149): 1778 RLU
- Proliferation (luminescent ATP assay), Mean ([3]; T-cell line 165-05G, 3 μg/mL antigen, Day 50 of culturing, No Antigen Value 2149): 1661 RLU
- Proliferation (luminescent ATP assay), Mean ([3]; T-cell line 165-05G, 10 μg/mL antigen, Day 50 of culturing, No Antigen Value 2149): 1569 RLU
- Proliferation (luminescent ATP assay), Mean ([3]; T-cell line 165-05G, 30 μg/mL antigen, Day 50 of culturing, No Antigen Value 2149): 1449 RLU
- Proliferation (luminescent ATP assay), Mean ([3]; T-cell line 165-B5G, 1.25 μg/mL antigen, Day 55 of culturing, No Antigen Value 846): 1005 RLU
- Proliferation (luminescent ATP assay), Mean ([3]; T-cell line 165-B5G, 2.5 μg/mL antigen, Day 55 of culturing, No Antigen Value 846): 886 RLU
- Proliferation (luminescent ATP assay), Mean ([3]; T-cell line 165-B5G, 5 μg/mL antigen, Day 55 of culturing, No Antigen Value 846): 947 RLU
- Proliferation (luminescent ATP assay), Mean ([3]; T-cell line 165-B5G, 10 μg/mL antigen, Day 55 of culturing, No Antigen Value 846): 931 RLU
- Proliferation (luminescent ATP assay), Mean ([3]; T-cell line 165-C5G, 1.25 μg/mL antigen, autologous B-LCL): 445 RLU
- Proliferation (luminescent ATP assay), Mean ([3]; T-cell line 165-C5G, 2.5 μg/mL antigen, autologous B-LCL): 406 RLU
- Proliferation (luminescent ATP assay), Mean ([3]; T-cell line 165-C5G, 5 μg/mL antigen, autologous B-LCL): 422 RLU
- Proliferation (luminescent ATP assay), Mean ([3]; T-cell line 165-C5G, 10 μg/mL antigen, autologous B-LCL): 430 RLU
- Proliferation (luminescent ATP assay), Mean ([3]; T-cell line 165-E7G, 1.25 μg/mL antigen, autologous B-LCL, Day 55): 1896 RLU
- Proliferation (luminescent ATP assay), Mean ([3]; T-cell line 165-E7G, 2.5 μg/mL antigen, autologous B-LCL, Day 55): 2001 RLU
- Proliferation (luminescent ATP assay), Mean ([3]; T-cell line 165-E7G, 5 μg/mL antigen, autologous B-LCL, Day 55): 1285 RLU
- Proliferation (luminescent ATP assay), Mean ([3]; T-cell line 165-E7G, 10 μg/mL antigen, autologous B-LCL, Day 55): 2176 RLU
- Proliferation (luminescent ATP assay), Mean ([3]; T-cell line 165-E9G, 1 μg/mL antigen, Day 50 of culturing, No Antigen Value 1742): 1528 RLU
- Proliferation (luminescent ATP assay), Mean ([3]; T-cell line 165-E9G, 1.25 μg/mL antigen, autologous B-LCL): 154 RLU
- Proliferation (luminescent ATP assay), Mean ([3]; T-cell line 165-E9G, 2.5 μg/mL antigen, autologous B-LCL): 240 RLU
- Proliferation (luminescent ATP assay), Mean ([3]; T-cell line 165-E9G, 3 μg/mL antigen, Day 50 of culturing, No Antigen Value 1742): 1454 RLU
- Proliferation (luminescent ATP assay), Mean ([3]; T-cell line 165-E9G, 5 μg/mL antigen, autologous B-LCL): 240 RLU
- Proliferation (luminescent ATP assay), Mean ([3]; T-cell line 165-E9G, 10 μg/mL antigen, autologous B-LCL): 153 RLU
- Proliferation (luminescent ATP assay), Mean ([3]; T-cell line 165-E9G, 30 μg/mL antigen, Day 50 of culturing, No Antigen Value 1742): 1301 RLU
- Proliferation (luminescent ATP assay), Mean ([3]; T-cell line 165-E9G, 10 μpg/mL antigen, Day 50 of culturing, No Antigen Value 1742): 1462 RLU
- Proliferation (luminescent ATP assay), Mean ([3]; T-cell line 165-F5G, 1.25 μg/mL antigen, autologous B-LCL): 139 RLU
- Proliferation (luminescent ATP assay), Mean ([3]; T-cell line 165-F5G, 2.5 μg/mL antigen, autologous B-LCL): 121 RLU
- Proliferation (luminescent ATP assay), Mean ([3]; T-cell line 165-F5G, 5 μg/mL antigen, autologous B-LCL): 142 RLU
- Proliferation (luminescent ATP assay), Mean ([3]; T-cell line 165-F5G, 10 μg/mL antigen, autologous B-LCL): 122 RLU
- Proliferation (luminescent ATP assay), Mean ([3]; T-cell line 165-F10G, 1 μg/mL antigen, Day 50 of culturing, No Antigen Value 3752): 3575 RLU
- Proliferation (luminescent ATP assay), Mean ([3]; T-cell line 165-F10G, 1.25 μg/mL antigen, autologous B-LCL): 929 RLU
- Proliferation (luminescent ATP assay), Mean ([3]; T-cell line 165-F10G, 2.5 μg/mL antigen, autologous B-LCL): 1342 RLU
- Proliferation (luminescent ATP assay), Mean ([3]; T-cell line 165-F10G, 3 μg/mL antigen, Day 50 of culturing, No Antigen Value 3752): 2989 RLU
- Proliferation (luminescent ATP assay), Mean ([3]; T-cell line 165-F10G, 5 μg/mL antigen, autologous B-LCL): 1091 RLU
- Proliferation (luminescent ATP assay), Mean ([3]; T-cell line 165-F10G, 10 μg/mL antigen, Day 50 of culturing, No Antigen Value 3752): 2876 RLU
- Proliferation (luminescent ATP assay), Mean ([3]; T-cell line 165-F10G, 10 μg/mL antigen, autologous B-LCL): 1054 RLU
- Proliferation (luminescent ATP assay), Mean ([3]; T-cell line 165-F10G, 30 μg/mL antigen, Day 50 of culturing, No Antigen Value 3752): 2299 RLU
- Proliferation (luminescent ATP assay), Mean ([3]; T-cell line 165-H11G, 1 μg/mL antigen, Day 50 of culturing, No Antigen Value 1485): 2448 RLU
- Proliferation (luminescent ATP assay), Mean ([3]; T-cell line 165-H11G, 1.25 μg/mL antigen, autologous B-LCL): 49 RLU
- Proliferation (luminescent ATP assay), Mean ([3]; T-cell line 165-H11G, 2.5 μg/mL antigen, autologous B-LCL): 320 RLU
- Proliferation (luminescent ATP assay), Mean ([3]; T-cell line 165-H11G, 3 μg/mL antigen, Day 50 of culturing, No Antigen Value 1485): 2294 RLU
- Proliferation (luminescent ATP assay), Mean ([3]; T-cell line 165-H11G, 5 μg/mL antigen, autologous B-LCL): 304 RLU
- Proliferation (luminescent ATP assay), Mean ([3]; T-cell line 165-H11G, 10 μg/mL antigen, Day 50 of culturing, No Antigen Value 1485): 2102 RLU
- Proliferation (luminescent ATP assay), Mean ([3]; T-cell line 165-H11G, 10 μg/mL antigen, autologous B-LCL): 336 RLU
- Proliferation (luminescent ATP assay), Mean ([3]; T-cell line 165-H11G, 30 μg/mL antigen, Day 50 of culturing, No Antigen Value 1485): 1599 RLU
